# Assay results published in ChEMBL document CHEMBL2150936, “Anticancer activity of small amphipathic β²,²-amino acid derivatives” (Eur J Med Chem, 2012).
# Tested on: NCI-H460
# Assay: Cytotoxicity against human NCI-H460 cells after 4 hrs by MTT assay
# Assay type: functional, cell-based
# Conditions: NCI-H460, 4 h
compound,measurement,setting,value
NCCNC(=O)C(CN)(Cc1ccc2ccccc2c1)Cc1ccc2ccccc2c1,IC50,,330 nM
same,TGI,,510 nM
same,CC50,read-out: LC50 (the source's name),1700 nM
